Source: patent USRE49873E1, “APP specific bace inhibitors (ASBIs) and uses thereof” (BUCK INSTITUTE FOR RESEARCH ON AGING, priority 2012, dated 2024)

Legend:
[1] = tested on: APP-Gal4 transactivation in HEK293T cells; assay: APP-Gal4/Mint3/TAZ transactivation assay; format: cell-based; conditions: Mint3 and TAZ present; galangin at 10 μM
Excerpt: (§1) FIGS. 7A and 7B illustrate inhibition of APP-Gal4 and APLP2-Gal4 transactivation by galangin. […] This transactivation was inhibited by Galangin and BACE inhibitor IV. FIG. 7B: Potent transactivation of transcription was also achieved with APLP2 fused to the Gal4 DNA binding domain when both Mint3 and TAZ were present. This transactivation was inhibited by Galangin and BACE inhibitor IV. […] The normalized luciferase activity is expressed as a percentage of the DMSO treated control (FIGS. 7A, 7B). Error bars indicate SEM. (*, p<0.05; **, p<0.01; ***, p<0.001; n=3, student t test).
(§2) This assay system is described by Orcholski et al. (2011) J. Alzheimers Dis., 23(4):689-699. Transactivation is achieved upon transfection with Mint3 and Taz. The ASBI was expected to inhibit only the transactivation of APP-Gal4, not that of APLP2-Gal4. For these experiments cells were co-transfected with a Gal4-luciferase reporter plasmid (to measure transactivation), a beta-galactosidase plasmid (to normalize for transfection efficiency), and the test plasmids identified. The normalized luciferase activity was expressed as fold induction over transcription by APP-Gal4 alone (FIG. 7A), or as fold induction over APLP2-Gal4 alone (FIG. 7B).
(§3) HEK293T cells were co-transfected with five plasmids: (1) pG5E1B-luc, 0.3 μg; (2) pCMV-LacZ, 0.1 μg; (3) pMst-APP (APP-Gal4) or pcDNA3.1-APLP2-Gal4, 0.3 μg; (4) pCMV5-Mint3, 1.0 μg; (5) pEF-N-FLAG-TAZ, 1.0 μg. Cells were harvested 48 hr after transfection in 0.2 ml per well Cell Culture Lysis Buffer (Promega), and their luciferase and β-galactosidase activities were determined with the Promega luciferase assay kit and the Promega β-galactosidase assay kit, respectively. The luciferase activity was standardized by the β-galactosidase activity to control for transfection efficiency and general effects on transcription. Transfections were performed at 80-90% cofluency in six-well plates using Lipofectamine 2000 (Invitrogen).

[2] = tested on: APLP2-Gal4 transactivation in HEK293T cells; assay: APLP2-Gal4/Mint3/TAZ transactivation assay; format: cell-based; conditions: Mint3 and TAZ present; galangin at 10 μM
Excerpt: as §1, §2, §3

in vivo = assay: in vivo; set-up: species or system mice; conditions: mouse; for brain Cmax of galangin: sc, 10 mg/kg
Description: The brain penetrance of galangin and progalangin were assessed in a standard PK comprising subcutaneous (Sub-Q) injection of 5 adult non-transgenic mice with 50 ul of a 5 mg/ml stock of compound in dimethylsulfoxide (DMSO) or a dose of 10 mg/kg for a 25 g mouse. Injected mice were anesthetized with ketamine/xylazine at 1, 2, 4, 6, and 8 hours and blood collected by cardiac puncture. The mice were then perfused with saline and brain tissue dissected and snap frozen on dry ice. Blood was centrifuged at 3000 rpm for 10 minutes and the plasma supernatant collected. Both plasma and the right hemibrain were sent to Integrated Analytical Solutions (IAS, Berkeley, Calif.) with a reference sample of compound for compound level analysis in tissue and plasma. The compound levels were determined using a LC-MS/MS approach.
CNS exposure studies were performed and consisted of a time-course design to collect heparinized plasma and brains. Following sc administration of the galangin or progalangin (compound-2) at 10 mg/kg, plasma and brain levels of the compounds were determined by quantitative LC/MS/MS methodology. Plasma samples were precipitated with acetonitrile:methanol (1:1) cocktail containing an internal standard. The brain samples were homogenized directly in ethylacetate or extracted from 5M guanidine homogenates with the liquid-liquid method. The resulting supernatant was evaporated to dryness and subjected to the LC/MS/MS analysis. For each compound 5 mice were used for the analysis. The brain-to-plasma ratios and plasma/brain Cmax levels were then determined (see, e.g., FIG. 8).

[3] = tested on: Aβ1-40 and Aβ1-42 levels in hippocampal/entorhinal cortical tissue; assay: Pilot efficacy testing in PDAPP (J20) AD model mice, Aβ ELISA; format: in vivo; conditions: 40 mpk sc daily for 14 days, hippocampus and cortex, 40 mg/kg
Description: Galangin and progalangin (PG-1) were dissolved in 10% solutol/15% DMSO/75% polyethylene glycol (PEG). Stock solutions were prepared at 10 mg/ml for each compound and 100 ul was injected subcutaneously daily for 14 days at a dose of 40 mkd. There were 5 PDAPP AD model J20 mice in both the galangin and progalangin groups, and 9 vehicle-only treated J20 controls. Mice were anesthetized, blood collected for plasma, and brain tissue collected as described above 2 hours after injection on the last day of treatment. The right hemibrain was further microdissected to isolate hippocampus and entorhinal cortex and this combined tissue was used for biochemical analysis. The remaining tissue and plasma was sent to IAS for compound level analysis.
Aβ1-42 and Aβ1-40 levels were determined using the hippocampal/entorhinal cortical tissue. Briefly, frozen tissue samples were weighed, and a 20% w/v sonicate prepared in 5M guandine-HCl/50 mM Tris, pH8. Sonication was performed with sample tubes in ice water, 4×5 seconds at 60 Hz, then 3×5 seconds at 80 Hz. Samples were then rotated at room temperature for 3 hours and frozen at −20° C. until assay. Invitrogen ELISA kits were used for Aβ1-40 and Aβ1-42 according to the manufacturer's instructions.

Compound | APP-Gal4 transactivation [1] | APLP2-Gal4 transactivation [2] | galangin levels after PG-1 injection versus galangin itself (in vivo) | plasma levels versus brain tissue levels (in vivo) | brain Cmax of galangin (in vivo) | Aβ1-40 (Aβ40) levels in brain [3] | Aβ1-42 (Aβ42) levels in brain [3] | Aβ1-40 (Aβ40) levels in brain ([3]; listed as pro-galangin I) | Aβ1-42 (Aβ42) levels in brain ([3]; listed as pro-galangin I) | Aβ1-40 (Aβ40) levels in brain ([3]; listed as progalangin) | Aβ1-42 (Aβ42) levels in brain ([3]; listed as progalangin) | brain penetration (in vivo)
BACE inhibitor IV [reference compound] | inhibited | inhibited |  |  |  |  |  |  |  |  |  | 
CC(=O)Oc1cc(OC(C)=O)c2c(=O)c(O)c(-c3ccccc3)oc2c1 [PG-1, 5,7-Diacetoxy-3-hydroxyflavone] |  |  | much higher | Plasma levels were greater than brain tissue levels | ~100 ng/g | more effective in vivo than galangin | more effective in vivo than galangin | slightly lowered | slightly lowered | reduction | reduction | 
C[C@@H]1O[C@@H](OC[C@H]2O[C@@H](Oc3c(-c4ccc(O)c(O)c4)oc4cc(O)cc(O)c4c3=O)[C@H](O)[C@@H](O)[C@@H]2O)[C@H](O)[C@H](O)[C@H]1O [Rutin] |  |  |  |  | no rutin was detectable in the brain |  |  |  |  |  |  | does not cross the blood-brain barrier
